We go through ten compounds from PubChem BioAssay (NCI).

What all share (assay): NCI tumour cell line growth inhibition, 48 h
The subject of assay [1] is MALME-3M melanoma.
The test system of assay [2] is HCT-116 colon.
In assay [3] the test system is 786-0 renal.
The subject of assay [4] is HOP-62 NSCLC.
For assay [5], the system named is NCI-H460 lung.
Assay [6] deals with CCRF-CEM leukemia.
For assay [7], the system named is T-47D breast.
Assay [8] has as its system SW-620 colon.
In assay [9] the test system is OVCAR-5 ovarian.
In assay [10] the test system is SN12C renal.

SMILES strings stand for the structures.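 Cells were grown in 96-well plates and exposed to each compound for 48 hours at five concentrations; endpoints were interpolated linearly between bracketing concentrations, or set to the highest concentration if not reached. GI50 is the concentration that inhibits growth by half. TGI: concentration producing complete growth inhibition.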

As to `COc1cc(C(=O)n2nc(N)c3c(C)cc(C)nc32)cc(OC)c1OC`, the GI50 in assay [1] is above 100 µM; in assay [2], 42 µM; in assay [3], above 100 µM; in assay [4] it was 40.8 µM; in assay [5], above 100 µM; in [6] it was above 89.2 µM. The GI50 is above 65.4 µM in assay [7], 2.48 µM in assay [8], above 100 µM in assay [9] and above 100 µM in assay [10]. For the same compound, the TGI in assay [1], in assay [2], in [3], in assay [4], in assay [5] and in [6] was above 100 µM throughout. The TGI in [7], in assay [8], in [9] and in [10] was above 100 µM throughout.
`COc1cc(-c2ccc[nH]2)[nH]c1/C=C1\N=C(C)C(CC(=O)OCC(C)(C)C)=C1C`: the GI50 in [1] is 0.4 µM; in assay [2], 0.181 µM; in assay [3], 0.3 µM; in assay [4], 0.218 µM; in assay [5] it was 0.137 µM; in assay [6], 0.0625 µM. Also, the GI50 in [7] is 0.157 µM; in [8], 0.192 µM; in assay [9] it was 0.501 µM. For the same compound, the TGI in assay [1] came to 1.69 µM; in assay [2] it was 1.15 µM; in [3] it was 1.53 µM; in assay [4], 1.38 µM; in assay [5], 1.35 µM; in [6], 2.12 µM. The TGI amounted to 0.887 µM in assay [7], 1.48 µM in assay [8] and 2.31 µM in assay [9].
Take `O=C1C=CC(=O)c2c1nc(CBr)[nH]c2=O`: the TGI in [1], in assay [2], in assay [3], in assay [4], in assay [7] and in assay [9] was above 100 µM in each case. This compound also showed a TGI in assay [10] above 100 µM.
In the case of `COC(=O)c1cc2cc(/C=C3/SC(=S)N(N(C(C)=O)C(C)=O)C3=O)oc2n1Cc1ccccc1`, the GI50 in [3] was 21.1 µM; in assay [4] it was 2.67 µM; in assay [5] it was 19.3 µM; in assay [6], 32.3 µM; in assay [7], above 100 µM; in assay [8] it was 41 µM. The GI50 is 19 µM in [9] and 20.7 µM in assay [10]. Further, the TGI in assay [3] was 38.6 µM; in assay [4], 14.1 µM; in assay [5], above 100 µM; in [6], above 100 µM; in [7], above 100 µM; in [8], above 100 µM. Besides, the TGI in [9] turned out to be 38.1 µM; in assay [10], 56 µM.
Regarding `CC1(C)C(=O)/C=C\C(=O)C(C)(C)C(=O)/C=C\C(=O)C(C)(C)C2=CC=C(O2)C(C)(C)C(=O)/C=C\C1=O`, the TGI in [1] amounted to 4.11 µM; in assay [2] it was 5 µM; in [3], 12.7 µM; in [4], 44.7 µM; in assay [5], 46.8 µM; in assay [7] it was 18.5 µM. Besides, the TGI was found to be 3.59 µM in [8], 37.1 µM in assay [9] and 14.1 µM in assay [10].
For the compound `CCC(c1ccccc1)c1cc(C(C)(C)C)cc(C(C)(C)C)c1O` (centres undefined), the TGI in [1] was determined as 26.8 µM; in assay [2], 25.5 µM; in [3], 29 µM; in assay [4] it was 29.7 µM; in [5], 31.3 µM; in assay [7] it was 29.6 µM. Besides, the TGI was found to be 30.5 µM in assay [8], 26.6 µM in [9] and 31.3 µM in assay [10].
Consider `CN1CCN(c2ccc(NC3=CC(=O)c4ncncc4C3=O)cc2)CC1`, for which the GI50 in assay [1] is 0.268 µM; in assay [2], 0.229 µM; in [3], 0.248 µM; in assay [5], 0.354 µM; in [6], 0.331 µM; in assay [7], 0.231 µM. Besides, the GI50 was 0.336 µM in assay [8], 0.285 µM in [9] and 0.326 µM in assay [10]. Also, the TGI was 0.713 µM in assay [1]; 0.545 µM in [2]; 0.645 µM in assay [3]; 1.22 µM in [5]; above 100 µM in assay [6]; 0.651 µM in assay [7]. In addition, the results for the TGI in [8], in assay [9] and in assay [10] were 1.27 µM, 0.801 µM and 0.969 µM, respectively.
For the compound `O=C(Oc1c(Cl)cc(Cl)cc1Cl)c1ccccc1Nc1ccnc(C(F)(F)F)c1`, the GI50 in [2] is 1.72 µM; in assay [3], 2.95 µM; in assay [4], 2.66 µM; in assay [5], 3.38 µM; in assay [7], 8.55 µM; in assay [8] it was 4.59 µM. The GI50 in assay [9] is 4.1 µM; in [10], 3.07 µM. Besides, the TGI is 4.28 µM in [2]; 11.1 µM in [3]; 8.8 µM in [4]; above 100 µM in [5]; above 100 µM in assay [7]; above 100 µM in assay [8]. For the same compound, the TGI in assay [9] was found to be 16.5 µM; in assay [10] it was 14.5 µM.
For `Cc1cc(N(CCNc2ccnc3cc(Cl)ccc23)Cc2ccc3c(c2)OCO3)nc(N2CCCC2)n1`, the GI50 is 1.89 µM in [1]; 0.532 µM in assay [2]; 1.33 µM in assay [3]; 1.86 µM in assay [4]; 1.57 µM in assay [6]; 1.93 µM in assay [7]. Besides, the values for the GI50 in [8], in [9] and in assay [10] were 1.19 µM, 1.87 µM and 1.5 µM, respectively. Besides, the TGI in [1] is 3.54 µM; in [2], 2.14 µM; in assay [3], 2.85 µM; in assay [4] it was 10.2 µM; in [6] it was 9.09 µM; in [7], 5.44 µM. For the same compound, the TGI in assay [8] is 2.94 µM; in assay [9], 4.95 µM; in assay [10], 3.87 µM.
As for `COc1cc(C(=O)O[C@H](C(=O)NCCCCNC(=O)[C@@H](OC(=O)c2cc(OC)cc3c(C)cccc23)[C@]2(C)CO2)[C@]2(C)CO2)c2cccc(C)c2c1`, the TGI in assay [3] was 1.25 µM; in [4] it was 0.892 µM; in assay [5], 0.228 µM; in [6] it was above 100 µM; in [7] it was 1.74 µM; in assay [9] it was 1.05 µM. In assay [10], the TGI was 2.39 µM. In addition, the GI50 was below 0.0354 µM in assay [5]; below 0.01 µM in assay [6]; 0.253 µM in assay [7]; below 0.0111 µM in assay [8]; 0.257 µM in [9]; 0.885 µM in [10].
